Measured values published in patent US20040023922A1, “Lipids for modulating immune response” (priority 2000, published 2004).

Test system: Female Balb/c mice
Test: Adjuvanticity of lipids: serum anti-KLH IgA, IgG, IgM ELISA (Example 7)
Format: in vivo
Details: for Day 7 Results IgA, score as multiples of the control response / Day 7 Results IgG, score as multiples of the control response / Day 7 Results IgM, score as multiples of the control response: serum day 7 after booster; for Day 7 Results IgA, score as multiples of the control response: 5 μl lipid + 45 μl saline + 50 μl KLH (2 mg/ml), week 0 and week 2; for Day 7 Results IgA, score as multiples of the control response / Day 7 Results IgG, score as multiples of the control response / Day 7 Results IgM, score as multiples of the control response / Day 21 Results IgA, score as multiples of the control response / Day 21 Results IgG, score as multiples of the control response / Day 21 Results IgM, score as multiples of the control response: control KLH + Saline = 1; for Day 21 Results IgA, score as multiples of the control response / Day 21 Results IgG, score as multiples of the control response / Day 21 Results IgM, score as multiples of the control response: serum day 21 after booster; for Ranking Total: sum of the six IgA, IgG, IgM scores of day 7 and day 21, control KLH + Saline = 6
Description: The objective of this study was to investigate the adjuvanticity of 19 different lipids.
Female Balb/c mice, 6-8 weeks and weighing about 20-22 gms were used and maintained on a normal mouse diet throughout the study.
There were 22 groups of mice marked alphabetically from A-V. Group A (8 mice) was the negative control (KLH+Saline), Group B (8 mice) was the positive control (KLH+IFA). Groups C-V were the experimental groups containing 6 mice each. 100 μl of antigen preparation comprising of 5 μl lipid+45 μl saline+50 μl (2 mg/ml KLH) was administered to 20 groups of 6 mice each, on week 0 followed by a boost on week 2.
On day 7 and day 21 after the booster dose, the mice were tail bled, the serum separated, aliquoted and stored at 4° C.
The specific anti-KLH IgG and IgM antibody content of each individual serum sample was determined in an established ELISA assay and standardised against a positive control antiserum obtained by hyperimmunisation of mice with KLH (100 μg) in Freund's incomplete adjuvant. Plates were coated with KLH at 2 μg/ml and incubated with four twofold dilutions of samples (100 μl) at 37° C. for 2 hours. The initial dilution of serum samples was 1:50 for IgA assay and 1:100 for IgG and IgM assays. […] IgA and IgM were used at 1:1000 and IgG at 1:2000 for 2 hours at 37° C. The results were expressed as antibody units calculated from the standard curve obtained from pooled immune mouse serum given an arbitrary antibody value of 100,000 IgA units/ml and 1×10^6 IgG and IgM units/ml. The standard curve was diluted from 1:100 to 1:3200 for IgA, 1:4000 to 1:256,000 for IgG and 1:1000 to 1:32000 for IgM samples. The value for each sample dilution falling on standard curve was calculated and the mean taken as the value for the sample.
Results are given in the form of histograms (FIGS. 9 to 14), plotting the Ig response (units/ml) against the trial grouping. […] The number signifies multiples of the control response.

CCCCCCCCCCCCCCC(=O)OC[C@H](COP(=O)([O-])OCC[N+](C)(C)C)OC(=O)CCCCCCCCCCCCCC [PCP, L-α-Phosphatidylcholine, dipentadecanoyl] was tested, and the “Day 7 Results IgA, score as multiples of the control response” value (“Day 7 Results IgA, score as multiples” for short) was 9, the “Day 7 Results IgG, score as multiples of the control response” value (shortened to “Day 7 Results IgG, score as multiples”) was 5 and the “Day 7 Results IgM, score as multiples of the control response” value (“Day 7 Results IgM, score as multiples” below) was 2. For the same compound, the “Day 21 Results IgA, score as multiples of the control response” value (from here on “Day 21 Results IgA, score as multiples”) was 2, the “Day 21 Results IgG, score as multiples of the control response” value (“Day 21 Results IgG, score as multiples” below) was 3 and the “Day 21 Results IgM, score as multiples of the control response” value (shortened to “Day 21 Results IgM, score as multiples”) was 1. For the same compound, the “Ranking Total” value was 22.

For CCCCCCCCCCCCCCC(=O)OCC(COC(=O)CCCCCCCCCCCCCC)OC(=O)CCCCCCCCCCCCCC [TPeN, Tripentadecanoin], the “Day 7 Results IgA, score as multiples” value was 11, the “Day 7 Results IgG, score as multiples” value was 4 and the “Day 7 Results IgM, score as multiples” value was 2. For the same compound, the “Day 21 Results IgA, score as multiples” value was 3, the “Day 21 Results IgG, score as multiples” value was 9 and the “Day 21 Results IgM, score as multiples” value was 2. For the same compound, the “Ranking Total” value was 31.

CCCCCCCCCCCCCC(=O)OC[C@H](COP(=O)(O)OCCN)OC(=O)CCCCCCCCCCCCC [PEM, L-α-Phosphatidylethanolamine, dimyristoyl] was tested, and the “Day 7 Results IgA, score as multiples” value was 17, the “Day 7 Results IgG, score as multiples” value was 7 and the “Day 7 Results IgM, score as multiples” value was 1. The “Day 21 Results IgA, score as multiples” value was 2, the “Day 21 Results IgG, score as multiples” value was 6 and the “Day 21 Results IgM, score as multiples” value was 2. For the same compound, the “Ranking Total” value was 35.

CCCCCCCCCCCCCCCCC(=O)OC[C@H](COP(=O)([O-])OCC[N+](C)(C)C)OC(=O)CCCCCCCCCCCCCCCC [PCH, L-α-Phosphatidylcholine, diheptadecanoyl] was tested, and the “Day 7 Results IgA, score as multiples” value was 18, the “Day 7 Results IgG, score as multiples” value was 10 and the “Day 7 Results IgM, score as multiples” value was 1. For the same compound, the “Day 21 Results IgA, score as multiples” value was 2, the “Day 21 Results IgG, score as multiples” value was 10 and the “Day 21 Results IgM, score as multiples” value was 2. The “Ranking Total” value was 43.

In the case of CCCCCCCCCCCCCCCC(=O)OCC(COC(=O)CCCCCCCCCCCCCCC)OC(=O)CCCCCCCCCCCCCCC [TPaL, Tripalmitin], the “Day 7 Results IgA, score as multiples” value is reported as 3, the “Day 7 Results IgG, score as multiples” value is reported as 4 and the “Day 7 Results IgM, score as multiples” value is reported as 1. For the same compound, the “Day 21 Results IgA, score as multiples” value was 1, the “Day 21 Results IgG, score as multiples” value was 6 and the “Day 21 Results IgM, score as multiples” value was 1. For the same compound, the “Ranking Total” value was 16 and the “Ranking Total” value (listed as TpaL) was 15.

With CCCCCCCCCCCCC/C=C/[C@@H](O)[C@H](CO)NC(=O)CCCCCCCCCCCCCCC [PS, N-Palmitoyl-d-sphigosine] the “Day 7 Results IgA, score as multiples” value was 35, the “Day 7 Results IgG, score as multiples” value was 3 and the “Day 7 Results IgM, score as multiples” value was 2. The “Day 21 Results IgA, score as multiples” value was 4, the “Day 21 Results IgG, score as multiples” value was 19 and the “Day 21 Results IgM, score as multiples” value was 1. For the same compound, the “Ranking Total” value was 64.

In the case of CCCCCCCCCCCCCCCC(=O)OCC(COP(=O)(O)OC[C@H](N)C(=O)O)OC(=O)CCCCCCCCCCCCCCC (mixture of isomers) [PSP, DL-α-Phosphatidyl-L-serine, dipalmitoyl], the “Day 7 Results IgA, score as multiples” value is reported as 47, the “Day 7 Results IgG, score as multiples” value is reported as 2 and the “Day 7 Results IgM, score as multiples” value is reported as 2. The “Day 21 Results IgA, score as multiples” value was 3, the “Day 21 Results IgG, score as multiples” value was 14 and the “Day 21 Results IgM, score as multiples” value was 2. For the same compound, the “Ranking Total” value was 70.

CCCCCCCCCCCCCCCCC(=O)OC[C@H](COP(=O)(O)OCCN)OC(=O)CCCCCCCCCCCCCCCC [PEH, L-α-Phosphatidylethanolamine, diheptadecanoyl] was tested, and the “Day 7 Results IgA, score as multiples” value was 4, the “Day 7 Results IgG, score as multiples” value was 12 and the “Day 7 Results IgM, score as multiples” value was 2. For the same compound, the “Day 21 Results IgA, score as multiples” value was 2, the “Day 21 Results IgG, score as multiples” value was 7 and the “Day 21 Results IgM, score as multiples” value was 1. For the same compound, the “Ranking Total” value was 28.

CCCCCCCCCCCCCCCCCC(=O)OCC(COC(=O)CCCCCCCCCCCCC)OC(=O)CCCCCCCCCCCCCCCCC (racemic) [DSM, 1,2 Distearloyl-3-myristoyl-rac-glycerol] was tested, and the “Day 7 Results IgA, score as multiples” value was 26, the “Day 7 Results IgG, score as multiples” value was 4 and the “Day 7 Results IgM, score as multiples” value was 4. The “Day 21 Results IgA, score as multiples” value was 3, the “Day 21 Results IgG, score as multiples” value was 5 and the “Day 21 Results IgM, score as multiples” value was 3. The “Ranking Total” value was 45.

For CCCCCCCCCCCCCCCCC(=O)OC[C@H](COP(=O)(O)O)OC(=O)CCCCCCCCCCCCCCCC [PAH, L-α-Phosphatidicacid, diheptadecanoyl], the “Day 7 Results IgA, score as multiples” value was 5, the “Day 7 Results IgG, score as multiples” value was 4 and the “Day 7 Results IgM, score as multiples” value was 2. For the same compound, the “Day 21 Results IgA, score as multiples” value was 2, the “Day 21 Results IgG, score as multiples” value was 6 and the “Day 21 Results IgM, score as multiples” value was 2. The “Ranking Total” value was 21.

For CCCCCCCCCCCCCCCCCC(=O)OC[C@H](COP(=O)(O)OCCN)OC(=O)CCCCCCCCCCCCCCCCC [PES, L-α-Phosphatidylethanolamine, distearoyl], the “Day 7 Results IgA, score as multiples” value was 15, the “Day 7 Results IgG, score as multiples” value was 6 and the “Day 7 Results IgM, score as multiples” value was 1. For the same compound, the “Day 21 Results IgA, score as multiples” value was 2, the “Day 21 Results IgG, score as multiples” value was 7 and the “Day 21 Results IgM, score as multiples” value was 1. The “Ranking Total” value was 32.

For CCCCCCCCCCCCCC(=O)OC[C@H](COP(=O)(O)O)OC(=O)CCCCCCCCCCCCC [PAM, L-α-Phosphatidicacid, dimyristoyl], the “Day 7 Results IgA, score as multiples” value was 4, the “Day 7 Results IgG, score as multiples” value was 5 and the “Day 7 Results IgM, score as multiples” value was 1. The “Day 21 Results IgA, score as multiples” value was 1, the “Day 21 Results IgG, score as multiples” value was 6 and the “Day 21 Results IgM, score as multiples” value was 1. The “Ranking Total” value was 18.

With CCCCCCCCCCCCCC(=O)OCC(COP(=O)([O-])OCC[N+](C)(C)C)OC(=O)CCCCCCCCCCCCC (racemic) [PCM, DL-α-Phosphatidylcholine, dimyristoyl] the “Day 7 Results IgA, score as multiples” value was 4, the “Day 7 Results IgG, score as multiples” value was 2 and the “Day 7 Results IgM, score as multiples” value was 1. The “Day 21 Results IgA, score as multiples” value was 1, the “Day 21 Results IgG, score as multiples” value was 3 and the “Day 21 Results IgM, score as multiples” value was 1. The “Ranking Total” value was 12.

With CCCCCCCCCCCCCCCC(=O)OCC(COC(=O)CCCCCCCCCCCCC)OC(=O)CCCCCCCCCCCCCCC (racemic) [DPM, 1,2 Diplamitoyl-3-myristoyl-rac-glycerol] the “Day 7 Results IgA, score as multiples” value was 16, the “Day 7 Results IgG, score as multiples” value was 3 and the “Day 7 Results IgM, score as multiples” value was 1. For the same compound, the “Day 21 Results IgA, score as multiples” value was 2, the “Day 21 Results IgG, score as multiples” value was 7 and the “Day 21 Results IgM, score as multiples” value was 2. The “Ranking Total” value was 31.
